Test results from patent publication US20230002359A1, “PESTICIDALLY ACTIVE FUSED BICYCLIC HETEROAROMATIC COMPOUNDS” (priority 2019, published 2023).

Assays:
Assay type in all cases: in vivo
[1] = test system: Diabrotica Balteata (Corn Root Worm); experiment: Example B1: Diabrotica balteata (corn root worm), maize sprouts sprayed, L2 larvae; details: 96 h, application rate of 200 ppm, 4 days after infestation, L2 larvae, read-out: control in at least one of the two categories (mortality or growth inhibition)
In short: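 Spray test: maize sprouts on agar, aqueous dilutions of 10′000 ppm DMSO stock; after drying, 6–10 L2 larvae/well. Read-out at 4 d post-infestation: mortality and growth inhibition vs untreated.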

[2] = test system: Chilo suppressalis (Striped Rice Stemborer); experiment: Example B3: Chilo suppressalis (striped rice stemborer), artificial diet, L2 larvae; details: 144 h, application rate of 200 ppm, 6 days after infestation, L2 larvae, read-out: control in at least one of the three categories (mortality, anti-feedant effect, or growth inhibition)
In short: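 Diet-incorporation surface assay: aqueous dilutions of 10'000 ppm DMSO stock applied to artificial diet, dried; 6-8 L2 larvae/well; read day 6 post-infestation for mortality, antifeedant effect, growth inhibition vs untreated. Active if any category above untreated.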

[3] = test system: Plutella xylostella (Diamond Back Moth); experiment: Example B4: Plutella xylostella (diamond back moth), artificial diet, eggs, 24-well; details: 192 h, application rate of 200 ppm, 8 days after infestation, eggs, read-out: control in at least one of the two categories (mortality or growth inhibition)
Method: 24-well microtiter plates with artificial diet were treated with aqueous test solutions prepared from 10′000 ppm DMSO stock solutions by pipetting. After drying, Plutella eggs were pipetted through a plastic stencil onto a gel blotting paper and the plate was closed with it. The samples were assessed for mortality and growth inhibition in comparison to untreated samples 8 days after infestation.

[4] = test system: Spodoptera littoralis (Egyptian Cotton Leaf Worm); experiment: Example B7: Spodoptera littoralis (Egyptian cotton leaf worm), cotton leaf discs sprayed, L1 larvae; details: foliar, 72 h, application rate of 200 ppm, 3 days after infestation, L1 larvae, read-out: control in at least one of the three categories (mortality, anti-feedant effect, or growth inhibition)
In short: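 Cotton leaf discs on agar were sprayed with aqueous test solutions made from 10′000 ppm DMSO stocks, dried, then infested with five L1 larvae. Mortality, anti-feeding effect and growth inhibition were scored against untreated discs 3 days after infestation; control means any category exceeds untreated.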

C[C@@H](c1ncnn1-c1ccc(C#N)cn1)N(C)c1ncnc2c(C(F)(F)F)cc(C(F)(F)C3CC3)cc12 [P.163, 6-[5-[(1S)-1-[[6-[cyclopropyl(difluoro)meth-yl]-8-(trifluoromethyl)quinazolin-4-yl]-methyl-amino]ethyl]-1,2,4-triazol-1-yl]pyridine-3-carbonitrile]
≥ 80%: percent control (mortality or growth inhibition) at 200 ppm [1] | percent control (mortality, anti-feedant effect or growth inhibition) at 200 ppm [2] | percent control (mortality or growth inhibition) at 200 ppm [3] | percent control (mortality, anti-feedant effect or growth inhibition) at 200 ppm [4]

CC(Nc1ncnc2c(Br)cc(Cl)cc12)c1nccnc1-n1nccn1 (centres unmarked) [P.173, 8-bromo-6-chloro-N-[1-[3-(triazol-2-yl)pyrazin-2-yl]ethyl]quinazolin-4-amine]
≥ 80%: percent control (mortality or growth inhibition) at 200 ppm [1] | percent control (mortality, anti-feedant effect or growth inhibition) at 200 ppm [2] | percent control (mortality or growth inhibition) at 200 ppm [3] | percent control (mortality, anti-feedant effect or growth inhibition) at 200 ppm [4]

CC(c1nccnc1-n1nccn1)N(C)c1ncnc2c(Br)cc(Cl)cc12 (centres unmarked) [P.174, 8-bromo-6-chloro-N-methyl-N-[1-[3-(triazol-2-yl)pyrazin-2-yl]ethyl]quinazolin-4-amine]
≥ 80%: percent control (mortality or growth inhibition) at 200 ppm [1] | percent control (mortality, anti-feedant effect or growth inhibition) at 200 ppm [2] | percent control (mortality or growth inhibition) at 200 ppm [3] | percent control (mortality, anti-feedant effect or growth inhibition) at 200 ppm [4]

C[C@@H](c1ncnn1-c1ncccn1)N(C)c1c(F)cnc2c(C(F)(F)F)cc(C(F)(F)F)cc12 [P.176, 3-fluoro-N-methyl-N-[(1S)-1-(2-pyrimidin-2-yl-1,2,4-triazol-3-yl)ethyl]-6,8-bis(trifluoromethyl)quinolin-4-amine]
≥ 80%: percent control (mortality or growth inhibition) at 200 ppm [1] | percent control (mortality, anti-feedant effect or growth inhibition) at 200 ppm [2] | percent control (mortality or growth inhibition) at 200 ppm [3] | percent control (mortality, anti-feedant effect or growth inhibition) at 200 ppm [4]

CC(Nc1ncnc2c(Cl)cc(Br)cc12)c1nccnc1-c1ncccn1 (centres unmarked) [P.178, 6-bromo-8-chloro-N-[1-(3-pyrimidin-2-ylpyrazin-2-yl)ethyl]quinazolin-4-amine]
≥ 80%: percent control (mortality or growth inhibition) at 200 ppm [1] | percent control (mortality, anti-feedant effect or growth inhibition) at 200 ppm [2] | percent control (mortality or growth inhibition) at 200 ppm [3] | percent control (mortality, anti-feedant effect or growth inhibition) at 200 ppm [4]

CC(c1ncnn1-c1ccc(F)cn1)N(C)c1ncnc2c(Br)cc(C(F)(F)F)cc12 (centres unmarked) [P.185, 8-bromo-N-[1-[2-(5-fluoro-2-pyridyl)-1,2,4-triazol-3-yl]ethyl]-N-methyl-6-(trifluoromethyl)quinazolin-4-amine]
≥ 80%: percent control (mortality or growth inhibition) at 200 ppm [1] | percent control (mortality, anti-feedant effect or growth inhibition) at 200 ppm [2] | percent control (mortality or growth inhibition) at 200 ppm [3] | percent control (mortality, anti-feedant effect or growth inhibition) at 200 ppm [4]

CC(c1ncnn1-c1ccc(F)cn1)N(C)c1ncnc2c(C(F)(F)F)cc(C(F)(F)F)cc12 (centres unmarked) [P.189, N-[1-[2-(5-fluoro-2-pyridyl)-1,2,4-triazol-3-yl]ethyl]-N-methyl-6,8-bis(trifluoromethyl)quina-zolin-4-amine]
≥ 80%: percent control (mortality or growth inhibition) at 200 ppm [1] | percent control (mortality, anti-feedant effect or growth inhibition) at 200 ppm [2] | percent control (mortality or growth inhibition) at 200 ppm [3] | percent control (mortality, anti-feedant effect or growth inhibition) at 200 ppm [4]

CC(c1ncnn1-c1ccc(OC(F)F)cn1)N(C)c1ncnc2c(C(F)(F)F)cc(C(F)(F)F)cc12 (centres unmarked) [P.192]
≥ 80%: percent control (mortality or growth inhibition) at 200 ppm [1] | percent control (mortality, anti-feedant effect or growth inhibition) at 200 ppm [2] | percent control (mortality or growth inhibition) at 200 ppm [3] | percent control (mortality, anti-feedant effect or growth inhibition) at 200 ppm [4]

CC(c1nc(Br)nn1-c1ncccn1)N(C)c1ncnc2c(C(F)(F)F)cc(Cl)cc12 (centres unmarked) [P.205, N-[1-(5-bromo-2-pyrimidin-2-yl-1,2,4-triazol-3-yl)ethyl]-6-chloro-N-methyl-8-(trifluoromethyl)quinazolin-4-amine]
≥ 80%: percent control (mortality or growth inhibition) at 200 ppm [1] | percent control (mortality, anti-feedant effect or growth inhibition) at 200 ppm [2] | percent control (mortality or growth inhibition) at 200 ppm [3] | percent control (mortality, anti-feedant effect or growth inhibition) at 200 ppm [4]

C[C@@H](c1ncnn1-c1ccc(C#N)cn1)N(C)c1ccnc2c(C(F)(F)F)cc(Br)cc12 [P.206, 6-[5-[(1S)-1-[[6-bromo-8-(trifluoromethyl)-4-quinolyl]-methyl-amino]ethyl]-1,2,4-triazol-1-yl]pyridine-3-carbonitrile]
≥ 80%: percent control (mortality or growth inhibition) at 200 ppm [1] | percent control (mortality, anti-feedant effect or growth inhibition) at 200 ppm [2] | percent control (mortality or growth inhibition) at 200 ppm [3] | percent control (mortality, anti-feedant effect or growth inhibition) at 200 ppm [4]

CC(c1nc(Br)nn1-c1ncccn1)N(C)c1ncnc2c(Cl)cc(C(F)(F)F)cc12 (centres unmarked) [P.207, N-[1-(5-bromo-2-pyrimidin-2-yl-1,2,4-triazol-3-yl)ethyl]-8-chloro-N-methyl-6-(trifluoromethyl)quinazolin-4-amine]
≥ 80%: percent control (mortality or growth inhibition) at 200 ppm [1] | percent control (mortality, anti-feedant effect or growth inhibition) at 200 ppm [2] | percent control (mortality or growth inhibition) at 200 ppm [3] | percent control (mortality, anti-feedant effect or growth inhibition) at 200 ppm [4]

C[C@H](Nc1ccnc2c(Br)cc(C(F)(F)F)cc12)c1ncnn1-c1ncccn1 [P.209, 8-bromo-N-[(1S)-1-(2-pyrimidin-2-yl-1,2,4-triazol-3-yl)ethyl]-6-(trifluoromethyl)quinolin-4-amine]
≥ 80%: percent control (mortality or growth inhibition) at 200 ppm [1] | percent control (mortality, anti-feedant effect or growth inhibition) at 200 ppm [2] | percent control (mortality or growth inhibition) at 200 ppm [3] | percent control (mortality, anti-feedant effect or growth inhibition) at 200 ppm [4]

CC(c1ncnn1-c1ccc(C#N)cn1)N(C)c1nccc2c(C(F)(F)F)cc(C(F)(F)F)cc12 (centres unmarked) [P.211, 6-[5-[1-[[5,7-bis(trifluoromethyl)-1-isoquinolyl]-methyl-amino]ethyl]-1,2,4-triazol-1-yl]pyridine-3 carbonitrile]
≥ 80%: percent control (mortality or growth inhibition) at 200 ppm [1] | percent control (mortality, anti-feedant effect or growth inhibition) at 200 ppm [2] | percent control (mortality or growth inhibition) at 200 ppm [3] | percent control (mortality, anti-feedant effect or growth inhibition) at 200 ppm [4]

C[C@@H](c1ncnn1-c1ccc(C#N)cn1)N(C)c1ccnc2c(C(F)(F)F)cc(C(F)(F)F)cc12 [P.214, 6-[5-[(1S)-1-[[6,8-bis(trifluoromethyl)-4-quinolyl]-methyl-amino]ethyl]-1,2,4-triazol-1-yl]pyridine-3-carbonitrile]
≥ 80%: percent control (mortality or growth inhibition) at 200 ppm [1] | percent control (mortality, anti-feedant effect or growth inhibition) at 200 ppm [2] | percent control (mortality or growth inhibition) at 200 ppm [3] | percent control (mortality, anti-feedant effect or growth inhibition) at 200 ppm [4]

C[C@H](Nc1ncnc2c(C(F)(F)F)cc(I)cc12)c1ncnn1-c1ccc(C#N)cn1 [P.218, 6-[5-[(1S)-1-[[6-iodo-8-(trifluoromethyl)quinazolin-4-yl]amino]ethyl]-1,2,4-triazol-1-yl]pyridine-3-carbonitirle]
≥ 80%: percent control (mortality or growth inhibition) at 200 ppm [1] | percent control (mortality, anti-feedant effect or growth inhibition) at 200 ppm [2] | percent control (mortality or growth inhibition) at 200 ppm [3] | percent control (mortality, anti-feedant effect or growth inhibition) at 200 ppm [4]

CC(c1ncnn1-c1ccc(C#N)cn1)N(C)c1c(C#N)cnc2c(C(F)(F)F)cc(C(F)(F)F)cc12 (centres unmarked) [P.224, 4-[1-[2-(5-cyano-2-pyridyl)-1,2,4-tirazol-3-yl]ethyl-methyl-amino]-6,8-bis(trifluoromethy)quino-line-3-carbonitrile]
≥ 80%: percent control (mortality or growth inhibition) at 200 ppm [1] | percent control (mortality, anti-feedant effect or growth inhibition) at 200 ppm [2] | percent control (mortality or growth inhibition) at 200 ppm [3] | percent control (mortality, anti-feedant effect or growth inhibition) at 200 ppm [4]

CC(c1ncnn1-c1ccc(F)cn1)N(C)c1ncnc2c(Cl)cc(C(F)(F)F)cc12 (centres unmarked) [P.232, 8-chloro-N-[1-[2-(5-fluoro-2-pyridyl)-1,2,4-triazol-3-yl]ethyl]-N-methyl-6-(trifluoromethyl)quinazolin-4-amine]
≥ 80%: percent control (mortality or growth inhibition) at 200 ppm [1] | percent control (mortality, anti-feedant effect or growth inhibition) at 200 ppm [2] | percent control (mortality or growth inhibition) at 200 ppm [3] | percent control (mortality, anti-feedant effect or growth inhibition) at 200 ppm [4]
